Experimental data from patent US8916183B2, “Pesticidal compositions and processes related thereto” (priority 2012, dated 2014).

Columns and labels:
[1] = system: Beet Armyworm (BAW) (Spodoptera exigua); experiment: Bioassay on beet armyworm (BAW), 128-well diet tray assay; assay type: in vivo; conditions: Spodoptera exigua; beet armyworm, 50 μg/cm^2; read-out: % Mortality BAW 50 μg/cm^2
Experimental: (§1) Certain molecules disclosed in this document were tested against BAW and CEW using procedures described in the following examples. In the reporting of the results, the “BAW & CEW Rating Table” was used (See Table Section).
Bioassays on BAW (Spodoptera exigua)
Bioassays on BAW were conducted using a 128-well diet tray assay. […] Trays were covered with a clear self-adhesive cover and held at 25° C., 14:10 light-dark for five to seven days. Percent mortality was recorded for the larvae in each well; activity in the eight wells was then averaged. The results are indicated in the table entitled “Table 5: Biological Results” (See Table Section).

[2] = system: Corn Earworm (CEW) (Helicoverpa zea); experiment: Bioassay on corn earworm (CEW), 128-well diet tray assay; assay type: in vivo; conditions: Helicoverpa zea; corn earworm, 50 μg/cm^2; read-out: % Mortality CEW 50 μg/cm^2
Experimental: as §1
Bioassays on CEW (Helicoverpa zea)
Bioassays on CEW were conducted using a 128-well diet tray assay. […] Trays were covered with a clear self-adhesive cover and held at 25° C., 14:10 light-dark for five to seven days. Percent mortality was recorded for the larvae in each well; activity in the eight wells was then averaged. The results are indicated in the table entitled “Table 5: Biological Results” (See Table Section).

SMILES	mortality at 50 µg/cm2 [1]	mortality at 50 µg/cm2 [2]
O=C1CS/C(=N\N=C\c2ccc(-c3ncn(-c4ccc(OC(F)(F)F)cc4)n3)cc2)N1c1ccccc1Cl [Compound 106C]	50 to 100%	50 to 100%
CCC1CS/C(=N\N=C\c2ccc(-c3ncn(-c4ccc(OC(F)(F)F)cc4)n3)cc2)N1c1c(C)cccc1Cl (stereo not drawn) [Compound 167C]	50 to 100%	50 to 100%
CCc1cc(OC)ccc1N1/C(=N/N=C/c2ccc(-c3ncn(-c4ccc(OC(F)(F)C(F)(F)F)cc4)n3)cc2)SCC1(C)O (stereo not drawn) [Compound 264C]	50 to 100%	–
Cc1cccc(C)c1N1C(=O)CS/C1=N\N=C\c1ccc(-c2cnn(-c3ccc(OC(F)(F)F)cc3)c2)cc1 [Compound 104C]	50 to 100%	50 to 100%
Cc1cccc(C(C)C)c1N1C(=O)CS/C1=N\N=C\c1ccc(-c2ncn(-c3ccc(OC(F)(F)F)cc3)n2)cc1 [Compound 238C]	50 to 100%	50 to 100%
CC(C)(C)c1ccccc1N1CCCS/C1=N\N=C\c1ccc(-c2ncn(-c3ccc(OC(F)(F)F)cc3)n2)cc1 [Compound 210C]	50 to 100%	50 to 100%
CC1CCS/C(=N\N=C\c2ccc(-c3ncn(-c4ccc(OC(F)(F)F)cc4)n3)cc2)N1c1ccccc1OC(F)(F)F (stereo not drawn) [Compound 216C]	50 to 100%	50 to 100%
Cc1cs/c(=N\N=C\c2ccc(-c3ncn(-c4ccc(OC(F)(F)F)cc4)n3)cc2)n1-c1c(F)cccc1F [Compound 171C]	50 to 100%	50 to 100%
COc1ccc(/N=C(/N/N=C/c2ccc(-c3ncn(-c4ccc(OC(F)(F)C(F)(F)F)cc4)n3)cc2)SCC(=O)O)c(C)c1 [Compound 50C]	50 to 100%	50 to 100%
CC1S/C(=N\N=C\c2ccc(-c3ncn(-c4ccc(OC(F)(F)F)cc4)n3)cc2)N(c2c(F)cccc2Cl)C1=O (stereo not drawn) [Compound 130C]	50 to 100%	50 to 100%
COc1ccc(N2C(=O)CS/C2=N\N=C\c2ccc(-c3ncn(-c4ccc(OC(F)(F)F)cc4)n3)cc2)c(C)c1 [Compound 114C]	50 to 100%	50 to 100%
CCC(C)c1ccccc1N1C(=O)CCS/C1=N\N=C\c1ccc(-c2ncn(-c3ccc(OC(F)(F)F)cc3)n2)cc1 (stereo not drawn) [Compound 230C]	50 to 100%	50 to 100%
Cc1cccc(C)c1/N=C(/N/N=C/c1ccc(-c2ncn(-c3ccc(OC(F)(F)F)cc3)n2)cc1)SCC(=O)NC[C@@H]1CCCN(C(=O)OC(C)(C)C)C1 [Compound 56C, (S)-tert-butyl 3-((2-((Z)-(2,6-dimethylphenylimino)-((E)-2-(4-(1-(4-(trifluoromethoxy)phenyl)-1H-1,2,4-triazol-3-yl)benzylidene)hydrazinyl)-methylthio)acetamido)methyl)piperidine-1-carboxylate]	50 to 100%	50 to 100%
O=C1CS/C(=N\N=C\c2ccc(-c3cn(-c4ccc(OC(F)(F)F)cc4)cn3)cc2)N1c1c(Cl)cccc1Cl [Compound 102C]	50 to 100%	50 to 100%
CC(C)c1cc(F)ccc1N1/C(=N/N=C/c2ccc(-c3ncn(-c4ccc(OC(F)(F)F)cc4)n3)cc2)SCC1(C)O (stereo not drawn) [Compound 258C]	50 to 100%	50 to 100%
CC1CCS/C(=N\N=C\c2ccc(-c3ncn(-c4ccc(OC(F)(F)F)cc4)n3)cc2)N1c1ccccc1OC(F)F (stereo not drawn) [Compound 221C]	50 to 100%	50 to 100%
COc1ccc(N2C(=O)CCS/C2=N\N=C\c2ccc(-c3ncn(-c4ccc(OC(F)(F)F)cc4)n3)cc2)c(C)c1 [Compound 231C]	50 to 100%	50 to 100%
Cc1cc(Cl)cc(C)c1N1C(=O)CS/C1=N\N=C\c1ccc(-c2ncn(-c3ccc(OC(F)(F)F)cc3)n2)cc1 [Compound 105C]	50 to 100%	50 to 100%
CCOc1cccc(OCC)c1N1C(=O)CS/C1=N\N=C\c1ccc(-c2ncn(-c3ccc(OC(F)(F)F)cc3)n2)cc1 [Compound 98C]	50 to 100%	–
